Laboratory results published in patent US20070027143A1, “Novel substituted 2,3-benzodiazepine derivatives” (priority 2003, published 2007).
Like-named read-outs stand apart in the source and are kept apart here.

How the values were obtained:
CD1 mice [1] = experiment: Anticonvulsant activity, bemegride induced seizures; type: in vivo; conditions: Mus musculus; po.; read-out: Bemegride ED50
Description: (§1) The anti-seizure activity of some of the compounds of the present invention was measured using the electroshock test (J. Pharmacol. Exp. Ther. 106:319 (1952)) and the results are shown in Table 3. The spasmolytic activity of the compounds of the present invention was investigated by using e.g., pentetrazole (J. Pharmacol. Exp. Ther. 108:168 (1953)), strychnine (J. Pharmacol. Exp. Ther. 129:75 (1960)), bemegrid, nicotine, bicuculline, 4-aminopyridine and mercapto-propionic acid for inducing the clonic-tonic seizures and lethality. The investigated compounds were administered orally in three doses using 10 male CD1 mice/dose, usually 60 min before the induction of seizures.

CD1 mice [2] = experiment: Anti-tremor effect, harmaline induced tremor; type: in vivo; conditions: po., Litchfield-Wilcoxon, limits in brackets
epilepsy patients = conditions: Bialer et al.; cited from earlier work
AMPA/kainate receptors = experiment: Inhibition of AMPA induced whole-cell current in acutely isolated cerebellar Purkinje cells (patch clamp); type: cell-based; conditions: 5 μM AMPA, read-out: Inhibition of the ion-currents caused by 5 μM AMPA, IC50
Description: (§2) In the first model the spreading depression caused by glutamate agonists (i.e., AMPA or kainate) was studied, while in the second one the transmembrane ion-current induced by the activation of the AMPA/kainate receptors was measured directly.
The activity of the compounds of the present invention was studied on acutely isolated cerebellar Purkinje cells by measuring the whole-cell current induced by 5 μM AMPA according for example to the method described by Bleakman et al (Neuropharmacology 12:1689 (1996)).

AMPA receptors = experiment: Inhibition of AMPA induced spreading depression in isolated chicken retina; type: cell-based; conditions: AMPA (5 μM)
Description: as §2
Inhibition of AMPA Induced “Spreading Depression” in Isolated Chicken Retina—
The AMPA antagonistic effect of the compounds of formula (I) or (II) was studied in the in vitro “spreading depression” model (Sheardown Brain Res. 607:189 (1993)). The AMPA antagonists prolong the latency of the development of the “spreading depression” caused by AMPA (5 μM).

CD1 mice [3] = experiment: Muscle relaxant activity, rotarod test; type: in vivo; conditions: Mus musculus, ip
Lewis rats [4] = experiment: Autoimmune encephalomyelitis model, histological symptoms; type: in vivo; conditions: day 24 after immunization
Description: 5-15 animals were used in each group. Their weights were 160-180 g (Lewis rats, female) and 180-220 g (Lewis rats, male). The activity of the compounds was determined according to the symptom score values, and compared to those of the control group (see Table 6). Histopathological investigations were carried out on the brain stem, the spinal cord, and the sciatic nerve (Gijbels et al., J. Clin. Invest. 94:2177 (1994)) using 5-10 animal/group.
Compounds of the invention were further investigated in the autoimmune encephalomyelitis model in rats as outlined in this description before, with the variance that 10 animals were used in each group, of weights 140-160 g (Lewis rats, female).

CD1 mice [5] = experiment: Anticonvulsant activity, maximal electroshock seizure (MES) test; type: in vivo; conditions: Mus musculus, po.
Description: as §1

Lewis rats [6] = experiment: Autoimmune encephalomyelitis model, neurological (clinical) symptoms; type: in vivo; conditions: Rattus norvegicus, po, female rats, read-out: Neurological symptoms (change compared to controls, %); for change in vivo at 3.75 mg/kg: 3.75 mg/kg p.o.
[7] = 0.5 h, 30′, read-out: MES 30′ ED50
[8] = 1 h, 60 min before induction, read-out: MES (MES 60′) ED50

CC(=O)N1N=C(c2ccc(N)cc2)c2cc3c(cc2C[C@H]1C)OCO3 [GYKI 53773, (R)-7-acetyl-5-(4-aminophenyl)-8,9-dihydro-8-methyl-7H-1,3-dioxolo[4,5-h][2,3]benzodiazepine, reference compound]
ED50 (CD1 mice [1]): 23.9 mg/kg | ED50, tremor induced by Harmaline 40 mg/kg ip. (CD1 mice [2]): 9.0(−7.4-10.9) mg/kg po. | Activity in clinical trials on epilepsy patients (epilepsy patients): active | IC50 (AMPA/kainate receptors): 1570 nM | IC50 (AMPA receptors): 1200 nM | ED50 (CD1 mice [3]): 2.3 mg/kg | Histological symptoms (change, %) (Lewis rats [4]; 30 mg/kg ip., female rats): −16% | Histological symptoms (change, %) (Lewis rats [4]; 30 mg/kg ip., male rats): +34% | ED50 (CD1 mice [5]; [7]): 4.9 mg/kg | ED50 (CD1 mice [5]; [8]): 8.6 mg/kg

Cc1nnc(N2N=C(c3ccc(N)c(C)c3)c3cc4c(cc3C[C@H]2C)OCO4)s1 [Example 119, (R)-5-(4-amino-3-methylphenyl)-8-methyl-7-(5-methyl-1,3,4-thiadiazol-2-yl)-8,9-dihydro-7H-1,3-dioxolo-[4,5-h][2,3]benzodiazepine]
ED50 (CD1 mice [1]): 5.7 mg/kg | change in vivo at 1 mg/kg (Lewis rats [6]; 1.0 mg/kg p.o., 0-14 day): -23% | change in vivo at 3.75 mg/kg (Lewis rats [6]; 0-8 day): -64% | change in vivo at 3.75 mg/kg (Lewis rats [6]; 0-14 day): -61% | melting point: 158 to 160 °C | IC50 (AMPA/kainate receptors): 26 nM | IC50 (AMPA receptors): 69 nM | ED50 (CD1 mice [3]): 0.51 mg/kg | Histopathological symptoms (change %) (Lewis rats [4]; 0.2 mg/kg i.p., female rats): +2% | Histopathological symptoms (change %) (Lewis rats [4]; 0.5 mg/kg i.p., female rats): −13% | Histopathological symptoms (change %) (Lewis rats [4]; 0.5 mg/kg p.o., female rats): −16% | Histopathological symptoms (change %) (Lewis rats [4]; 1.0 mg/kg i.p., female rats): −3% | Histopathological symptoms (change %) (Lewis rats [4]; 1.0 mg/kg p.o., female rats): −21% | Histological (histopathological) symptoms (change, %) (Lewis rats [4]; 1.875 mg/kg ip., female rats): −8% | Histopathological symptoms (change %) (Lewis rats [4]; 1.875 mg/kg p.o., female rats): −42% | Histological (histopathological) symptoms (change, %) (Lewis rats [4]; 3.75 mg/kg ip., female rats): +3% | Histopathological symptoms (change %) (Lewis rats [4]; 3.75 mg/kg p.o., female rats): −32% | ED50 (CD1 mice [5]; [7]): 2.15 mg/kg | ED50 (CD1 mice [5]; [8]): 2.87 mg/kg

Cc1nnc(N2N=C(c3ccc(N)cc3)c3cc4c(cc3C[C@H]2C)OCO4)s1 [Example 86, (R)-5-(4-Aminophenyl)-8-methyl-7-(5-methyl-1,3,4-thiadiazol-2-yl)-8,9-dihydro-7H-1,3-dioxolo-[4,5-h][2,3]benzodiazepine]
ED50 (CD1 mice [1]): 11.2 mg/kg | ED50, tremor induced by Harmaline 40 mg/kg ip. (CD1 mice [2]): 6.0(4.9-7.4) mg/kg po. | IC50 (AMPA/kainate receptors): 60 nM | IC50 (AMPA receptors): 420 nM | ED50 (CD1 mice [3]): 0.8 mg/kg | Histological (histopathological) symptoms (change, %) (Lewis rats [4]; 1.875 mg/kg ip., female rats): −15% | Histological symptoms (change, %) (Lewis rats [4]; 1.875 mg/kg ip., male rats): −25% | Histological (histopathological) symptoms (change, %) (Lewis rats [4]; 3.75 mg/kg ip., female rats): −20% | Histological symptoms (change, %) (Lewis rats [4]; 3.75 mg/kg ip., male rats): +4% | Histological symptoms (change, %) (Lewis rats [4]; 7.5 mg/kg ip., female rats): −22% | Histological symptoms (change, %) (Lewis rats [4]; 7.5 mg/kg ip., male rats): +1% | Histological symptoms (change, %) (Lewis rats [4]; 15 mg/kg ip., female rats): −53% | Histological symptoms (change, %) (Lewis rats [4]; 15 mg/kg ip., male rats): −66% | ED50 (CD1 mice [5]; [7]): 4.3 mg/kg | ED50 (CD1 mice [5]; [8]): 6.1 mg/kg
